From patent US11649255B2, “Indazoles as hematopoietic progenitor kinase 1 (HPK1) inhibitors and methods using same” (1st Biotherapeutics, Inc., priority 2020, dated 2023) come the findings set out here.

The experiment concerns the target recombinant human HPK1 (Homo sapiens (Human), UniProt Q92918). The experiment is described as follows: HPK1 kinase assay (ADP-Glo). Format: biochemical. The conditions noted are these: 25 μM ATP, MBP substrate. Summed up: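 Activity was read as ADP formed, detected by ADP-Glo luminescence after the reaction of 5 ng recombinant human HPK1 with MBP and ATP (stocks 0.5 μg/μl and 25 μM) for 40 min at 30 °C. Buffer was Tris pH 7.5 with MgCl2, BSA and DTT, with compound in 0.5% DMSO. IC50 came from inhibition curves.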
A general note: In ADP-Glo the light output rises with the ADP produced.

Structures are written as SMILES. A value given as a limit tells only on which side of the number the result lay.

Sequence of recombinant human HPK1 (Q92918 whole entry): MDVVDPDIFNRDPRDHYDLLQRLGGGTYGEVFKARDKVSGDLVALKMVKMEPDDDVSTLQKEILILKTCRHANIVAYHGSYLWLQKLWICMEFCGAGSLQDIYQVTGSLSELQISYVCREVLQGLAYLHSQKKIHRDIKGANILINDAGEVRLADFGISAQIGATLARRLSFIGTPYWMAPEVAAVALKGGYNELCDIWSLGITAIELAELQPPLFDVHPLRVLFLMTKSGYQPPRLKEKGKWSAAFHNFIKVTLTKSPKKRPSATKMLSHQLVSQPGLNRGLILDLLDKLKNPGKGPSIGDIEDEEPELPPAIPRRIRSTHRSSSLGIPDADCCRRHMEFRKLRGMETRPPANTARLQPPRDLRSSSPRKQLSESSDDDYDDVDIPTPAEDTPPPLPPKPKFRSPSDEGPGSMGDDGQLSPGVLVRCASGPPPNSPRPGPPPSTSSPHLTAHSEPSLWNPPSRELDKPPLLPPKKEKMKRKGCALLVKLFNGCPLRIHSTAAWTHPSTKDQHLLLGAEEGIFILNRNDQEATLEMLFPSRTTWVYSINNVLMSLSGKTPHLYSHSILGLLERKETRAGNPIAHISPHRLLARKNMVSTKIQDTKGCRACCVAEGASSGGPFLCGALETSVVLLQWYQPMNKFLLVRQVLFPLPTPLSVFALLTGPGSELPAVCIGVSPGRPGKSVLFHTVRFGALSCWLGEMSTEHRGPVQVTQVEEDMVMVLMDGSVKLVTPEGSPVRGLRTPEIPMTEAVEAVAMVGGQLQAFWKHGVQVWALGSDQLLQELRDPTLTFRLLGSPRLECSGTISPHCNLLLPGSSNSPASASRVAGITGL

In the case of `O=C(Nc1cn2cc(-c3c(Cl)c(F)c(N4CCC4)c4[nH]ncc34)ccc2n1)[C@@H]1C[C@@H]1F` [Example 283, (1S,2S)-N-(6-(7-(azetidin-1-yl)-5-chloro-6-fluoro-1H-indazol-4-yl)imidazo[1,2-a]pyridin-2-yl)-2-fluorocyclopropane-1-carboxamide], the IC50 is below 100 nM.
Take `Nc1cc2[nH]ncc2c(-c2ccc3nc(NC(=O)[C@@H]4C[C@@H]4F)cn3c2)c1Cl` [Example 284, (1S,2S)-N-(6-(6-amino-5-chloro-1H-indazol-4-yl)imidazo[1,2-a]pyridin-2-yl)-2-fluorocyclopropane-1-carboxamide]: the concentration for half-maximal inhibition (IC50) was in the range of 101 to 500 nM.
Then `COc1cc(C)c(-c2ccc3nc(NC(=O)[C@@H]4C[C@@H]4F)cn3c2)c2cn[nH]c12` [Example 285, (1S,2S)-2-fluoro-N-(6-(7-methoxy-5-methyl-1H-indazol-4-yl)imidazo[1,2-a]pyridin-2-yl)cyclopropane-1-carboxamide], with below 100 nM; and `C=CC(=O)Nc1cc2[nH]ncc2c(-c2ccc3nc(NC(=O)[C@@H]4C[C@@H]4F)cn3c2)c1Cl` [Example 286, (1S,2S)-N-(6-(6-acrylamido-5-chloro-1H-indazol-4-yl)imidazo[1,2-a]pyridin-2-yl)-2-fluorocyclopropane-1-carboxamide], with above 1000 nM; and `CCOc1cc(C)c(-c2ccc3nc(NC(=O)[C@@H]4C[C@@H]4F)cn3c2)c2cn[nH]c12` [Example 287, (1S,2S)-N-(6-(7-ethoxy-5-methyl-1H-indazol-4-yl)imidazo[1,2-a]pyridin-2-yl)-2-fluorocyclopropane-1-carboxamide], with below 100 nM.
The result for `CCOc1c(F)c(C)c(-c2ccc3nc(NC(=O)[C@@H]4C[C@@H]4F)cn3c2)c2cn[nH]c12` [Example 288, (1S,2S)-N-(6-(7-ethoxy-6-fluoro-5-methyl-1H-indazol-4-yl)imidazo[1,2-a]pyridin-2-yl)-2-fluorocyclopropane-1-carboxamide] reads below 100 nM; that for `C=CC(=O)Nc1cc2[nH]ncc2c(-c2ccc3nc(NC(=O)[C@@H]4C[C@@H]4F)cn3c2)c1C` [Example 289, (1S,2S)-N-(6-(6-acrylamido-5-methyl-1H-indazol-4-yl)imidazo[1,2-a]pyridin-2-yl)-2-fluorocyclopropane-1-carboxamide], above 1000 nM.
The result for `O=C(Nc1cn2cc(-c3c(Cl)c(F)c(SCCO)c4[nH]ncc34)ccc2n1)[C@@H]1C[C@@H]1F` [Example 290, (1S,2S)-N-(6-(5-chloro-6-fluoro-7-((2-hydroxyethyl)thio)-1H-indazol-4-yl)imidazo[1,2-a]pyridin-2-yl)-2-fluorocyclopropane-1-carboxamide] reads below 100 nM.
`Cc1c(F)c(SCCO)c2[nH]ncc2c1-c1ccc2nc(NC(=O)[C@@H]3C[C@@H]3F)cn2c1` [Example 292, (1S,2S)-2-fluoro-N-(6-(6-fluoro-7-((2-hydroxyethyl)thio)-5-methyl-1H-indazol-4-yl)imidazo[1,2-a]pyridin-2-yl)cyclopropane-1-carboxamide]: the IC50 is below 100 nM.
The result for `CCc1c(F)cc2[nH]ncc2c1-c1ccc2nc(NC(=O)[C@@H]3C[C@@H]3F)cn2c1` [Example 294, (1S,2S)-N-(6-(5-ethyl-6-fluoro-1H-indazol-4-yl)imidazo[1,2-a]pyridin-2-yl)-2-fluorocyclopropane-1-carboxamide] reads below 100 nM; that for `O=C(Nc1cn2cc(-c3c(Cl)c(F)c(O)c4[nH]ncc34)ccc2n1)[C@@H]1C[C@@H]1F` [Example 295, (1S,2S)-N-(6-(5-chloro-6-fluoro-7-hydroxy-1H-indazol-4-yl)imidazo[1,2-a]pyridin-2-yl)-2-fluorocyclopropane-1-carboxamide], below 100 nM; that for `CCc1c(F)c(F)c2[nH]ncc2c1-c1ccc2nc(NC(=O)[C@@H]3C[C@@H]3F)cn2c1` [Example 298, (1S,2S)-N-(6-(5-ethyl-6,7-difluoro-1H-indazol-4-yl)imidazo[1,2-a]pyridin-2-yl)-2-fluorocyclopropane-1-carboxamide], below 100 nM.
The result for `Cc1c(F)c([S+](C)[O-])c2[nH]ncc2c1-c1ccc2nc(NC(=O)[C@@H]3C[C@@H]3F)cn2c1` (stereo partly drawn) [Example 299, (1S,2S)-2-fluoro-N-(6-(6-fluoro-5-methyl-7-(methylsulfinyl)-1H-indazol-4-yl)imidazo[1,2-a]pyridin-2-yl)cyclopropane-1-carboxamide] reads 101 to 500 nM; that for `CSc1c(F)c(N(C)C)c2[nH]ncc2c1-c1ccc2nc(NC(=O)[C@@H]3C[C@@H]3F)cn2c1` [Example 300, (1S,2S)-N-(6-(7-(dimethylamino)-6-fluoro-5-(methylthio)-1H-indazol-4-yl)imidazo[1,2-a]pyridin-2-yl)-2-fluorocyclopropane-1-carboxamide], below 100 nM.
In the case of `CC(=O)Nc1c(F)c(Cl)c(-c2ccc3nc(NC(=O)[C@@H]4C[C@@H]4F)cn3c2)c2cn[nH]c12` [Example 301], the half-maximal inhibitory concentration (IC50) is below 100 nM.
The result for `Cc1c(F)c(S(C)(=O)=O)c2[nH]ncc2c1-c1ccc2nc(NC(=O)[C@@H]3C[C@@H]3F)cn2c1` [Example 302, (1S,2S)-2-fluoro-N-(6-(6-fluoro-5-methyl-7-(methylsulfonyl)-1H-indazol-4-yl)imidazo[1,2-a]pyridin-2-yl)cyclopropane-1-carboxamide] reads 101 to 500 nM; that for `C[S+]([O-])c1c(F)c(Cl)c(-c2ccc3nc(NC(=O)[C@@H]4C[C@@H]4F)cn3c2)c2cn[nH]c12` (stereo partly drawn) [Example 303, (1S,2S)-N-(6-(5-chloro-6-fluoro-7-(methylsulfinyl)-1H-indazol-4-yl)imidazo[1,2-a]pyridin-2-yl)-2-fluorocyclopropane-1-carboxamide], below 100 nM.
The result for `CSc1c(F)c(F)c2[nH]ncc2c1-c1ccc2nc(NC(=O)[C@@H]3C[C@@H]3F)cn2c1` [Example 304, (1S,2S)-N-(6-(6,7-difluoro-5-(methylthio)-1H-indazol-4-yl)imidazo[1,2-a]pyridin-2-yl)-2-fluorocyclopropane-1-carboxamide] reads below 100 nM; that for `COC(=O)c1c(F)c(C)c(-c2ccc3nc(NC(=O)[C@@H]4C[C@@H]4F)cn3c2)c2cn[nH]c12` [Example 305, methyl 6-fluoro-4-(2-((1S,2S)-2-fluorocyclopropane-1-carboxamido)imidazo[1,2-a]pyridin-6-yl)-5-methyl-1H-indazole-7-carboxylate], below 100 nM.
Regarding `CCN(C)c1c(F)c(Cl)c(-c2ccc3nc(NC(=O)[C@@H]4C[C@@H]4F)cn3c2)c2cn[nH]c12` [Example 306, (1S,2S)-N-(6-(5-chloro-7-(ethyl(methyl)amino)-6-fluoro-1H-indazol-4-yl)imidazo[1,2-a]pyridin-2-yl)-2-fluorocyclopropane-1-carboxamide], the IC50 was below 100 nM.
Then `CN(C)c1c(F)c(C(F)(F)F)c(-c2ccc3nc(NC(=O)[C@@H]4C[C@@H]4F)cn3c2)c2cn[nH]c12` [Example 307, (1S,2S)-N-(6-(7-(dimethylamino)-6-fluoro-5-(trifluoromethyl)-1H-indazol-4-yl)imidazo[1,2-a]pyridin-2-yl)-2-fluorocyclopropane-1-carboxamide], with below 100 nM.
With `CC(=O)Nc1c(F)c(C)c(-c2ccc3nc(NC(=O)[C@@H]4C[C@@H]4F)cn3c2)c2cn[nH]c12` [Example 308, (1S,2S)-N-(6-(7-acetamido-6-fluoro-5-methyl-1H-indazol-4-yl)imidazo[1,2-a]pyridin-2-yl)-2-fluorocyclopropane-1-carboxamide], the IC50 was 101 to 500 nM.

A word on the IC50: it is the concentration at which inhibition is half-maximal.
